Assay results as given in patent US20080254023A1, “Treating Gliosis, Glial Scarring, Inflammation or Inhibition of Axonal Growth in the Nervous System by Modulating Eph Receptor” (THE UNIVERSITY OF QUEENSLAND, priority 2004, published 2008).

B1: IFNγ: Interferon-γ, inflammatory cytokine, inducer of astrocytic gliosis (protein, UniProt P01579 24-161, looked up)
Interferon gamma: QDPYVKEAENLKKYFNAGHSDVADNGTLFLGILKNWKEESDRKIMQSQIVSFYFKLFKNFKDDQSIQKSVETIKEDMNVKFFNSNKKKRDDFEKLTNYSVTDLNVQRKAIHELIQVMAELSPAAKTGKRKRSQMLFRG

Columns and labels:
Type in all cases: cell-based, mice
EphA4 [1] = assay: EphA4 expression in cultured astrocytes (Western analysis); conditions: 72 hrs, compared with untreated controls
Method: (§1) For biochemical analysis of astrocytes, factors as indicated were added to 80% confluent monolayers in 10 cm plates (Falcon, USA) for the times indicated. EphrinA5-Fc (available from the inventors) was pre-complexed as above.
(§2) Cells were lysed and a sample kept aside for analysis of total protein levels. The remainder of the lysate was used for immunoprecipitation in EphA4 or Rho activation assays. EphA4 activation was determined by immunoprecipitation of phosphorylated proteins using anti-phosphotyrosine (Cell Signaling), followed by Western transfer and detection of activated or total EphA4 using a rabbit anti-EphA4 antibody (kindly provided by Dr. D. Wilkinson, National Institute for Medical Research, London). Rho activation assays were performed using the Rhotekin RBD assay, according to the manufacturer's instructions (Upstate, USA). Total EphA4 and β-actin expression levels were determined in non-lesioned and 7 d post-lesioned spinal cords by Western analysis using rabbit anti-EphA4 antibody as above and mouse anti-β-actin antibody (Sigma). Densitometry was performed on the autoradiographs using NIH Image software to determine relative levels of the EphA4 bands and normalized to β-actin levels.

astrocytes = assay: In vitro astrocyte proliferation assay (MTT); conditions: up to 72 hrs, LIF 1000 U/ml, IFN-γ 100 U/ml; for proliferation of WT astrocytes: wildtype astrocytes
Method: The [3-(4,5-dimethylthiazol-2-yl)-2,5-diphenyl]tetrazolium bromide (MTT) assay, which determines mitochondrial activity in living cells, is commonly used as a proliferation assay (Mosmann, J Immunol Methods 65:55-63, 1983). Living cells transform the tetrazolium ring into dark blue formazan crystals, which can be quantified by reading the optical density (O.D.); an increase in O.D. correlates with an increase in cell number over time. Wildtype and EphA4−/− astrocytes were plated on 96 well plates (Falcon) at 3×10^3 cells/well in DMEM supplemented with 10% FCS in the presence or absence of either LIF (1000 U/ml) or IFN-γ (100 U/ml). The MTT assay was performed at 2, 24, 48 and 72 hours after plating. MTT (0.25 mg/ml) was incubated with the cells at each timepoint for 2 hours at 37° C., the cells were then lysed with an equal volume of acidic isopropanol (0.04M HCL in absolute isopropanol) and the O.D. of the formazan product was measured at 550-650 nm.

Rho = Rho activation in cultured astrocytes (Rhotekin RBD assay)
Method: as §1, §2

EphA4 [2] = molecular target: T1, EphA4 (Mus musculus, UniProt Q03137); assay: EphA4 phosphorylation in cultured astrocytes (anti-phosphotyrosine immunoprecipitation, Western)
T1 construct: chamber slides (Falcon, USA) containing wildtype or EphA4−/− astrocyte monolayers; endogenous in cells; host or cells: primary purified astrocyte cultures from wildtype mice
Method: as §1, §2

T1 sequence (Q03137 20-986): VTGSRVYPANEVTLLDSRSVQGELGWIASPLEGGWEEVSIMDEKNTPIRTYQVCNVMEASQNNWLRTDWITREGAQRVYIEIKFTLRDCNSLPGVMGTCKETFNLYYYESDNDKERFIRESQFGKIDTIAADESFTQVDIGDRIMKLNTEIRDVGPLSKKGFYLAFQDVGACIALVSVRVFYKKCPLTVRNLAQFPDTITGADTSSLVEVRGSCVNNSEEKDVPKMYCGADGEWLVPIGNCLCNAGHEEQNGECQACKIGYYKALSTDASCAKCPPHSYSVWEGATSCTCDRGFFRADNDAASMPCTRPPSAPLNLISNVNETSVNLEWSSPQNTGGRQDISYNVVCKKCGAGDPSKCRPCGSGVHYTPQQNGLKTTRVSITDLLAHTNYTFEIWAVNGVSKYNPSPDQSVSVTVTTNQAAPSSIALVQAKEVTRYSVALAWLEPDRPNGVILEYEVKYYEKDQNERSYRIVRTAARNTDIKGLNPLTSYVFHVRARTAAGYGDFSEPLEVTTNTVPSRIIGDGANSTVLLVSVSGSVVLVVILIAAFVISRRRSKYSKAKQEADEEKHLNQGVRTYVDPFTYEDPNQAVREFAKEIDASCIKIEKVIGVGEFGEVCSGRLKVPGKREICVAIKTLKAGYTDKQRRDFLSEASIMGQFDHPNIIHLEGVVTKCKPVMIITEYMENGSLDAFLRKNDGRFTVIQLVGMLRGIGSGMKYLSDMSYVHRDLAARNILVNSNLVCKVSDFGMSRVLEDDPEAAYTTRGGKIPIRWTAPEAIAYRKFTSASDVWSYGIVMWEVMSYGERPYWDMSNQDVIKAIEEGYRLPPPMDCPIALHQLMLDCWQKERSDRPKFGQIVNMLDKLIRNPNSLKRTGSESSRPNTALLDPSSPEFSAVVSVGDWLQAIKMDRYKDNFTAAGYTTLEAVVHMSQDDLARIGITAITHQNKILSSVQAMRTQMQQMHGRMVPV

Row | Molecule | upregulation of EphA4 expression on astrocytes (EphA4 [1]) | proliferation response of EphA4−/− astrocytes (astrocytes) | proliferation of WT astrocytes (astrocytes) | Rho activation (RhoGTP) in EphA4−/− astrocytes (Rho; EphA4−/− astrocytes in culture) | Rho activation (RhoGTP) in wildtype astrocytes (Rho; wildtype astrocytes in culture) | upregulation of EphA4 phosphorylation (EphA4 [2])
1 | IFNγ: Interferon-γ, inflammatory cytokine, inducer of astrocytic gliosis | 56% | markedly decreased | increased proliferation | not | activated Rho | 
2 | LIF: Leukemia inhibitory factor, inflammatory cytokine | 69% | markedly decreased | increased proliferation |  |  | 2 fold
3 | TNFα | no effect |  |  |  |  | 
4 | B1 |  |  |  |  |  | 2 fold
